# According to US20250090729A1, “Methods and Products to Detect, Minimize and Treat TRAP-Related Tissue Reactions and Tissue Injury Associated With Medical Devices” (priority 2022, published 2025):
# “Also recorded” adds a separate entry of the source.
# How the values were obtained:
# [1] = tested on: human neutrophils; experiment: In vitro TRAP formation by human blood neutrophils (PMNs) cultured with test agents; type: cell-based; conditions: for TRAP formation in human neutrophils: FIG. 12, human blood neutrophils cultured with agent; for TRAP formation at higher dilution than 1/5: PMNs; for TRAP formation at 1/5 dilution: PMNs of 3 donors, 4 hr timeline, vs negative control
# Experimental: From left to right and top to bottom (A)-(F), media only (A) and PMA (B), a known inducer of TRAPS in human neutrophils, present positive control.
# PMA=phorbol myristate acetate; Insulin is Humalog (Lilly); LPS is a bacterial endotoxin (known inducers of TRAPs.
# Green color (light color in grayscale) indicates the existence of TRAPs. In each slide set, the upper left slide is the control with media only. The upper right slide is Humalog insulin in media at 1/5 dilution (0.6 mg m-cresol/ml, with 0.6 mg/ml of insulin), PMA concentrations are in ng/ml and the lower right slide is m-cresol at 1/5 dilution (0.6 mg/ml of m-cresol). In this study, the media was RPMI 1640 (phenol free).
# In these examples, human blood neutrophils were placed in a culture dish+/−sensors in vitro. […] Brightfield refers to the use of non-fluorescent white light (78a). […] In FIG. 79, neutrophils were added to tissue culture dishes that contained a sensor (commercial type #1) to see if the sensor could directly trigger neutrophil death and TRAP release which we detect with fluorescent dyes like sytox green. FIG. 79a-c had no neutrophils added to the sensors. In FIG. 79d-f neutrophils were added. The sytox green binds to DNA, and fluoresces green in color photo, or white in black and white photos. […] “Merged” refers to photos in which the non-fluorescent (brightfield) and fluorescent photos are merged into a single photo FIG. 79c.
# [2] = tested on: porcine skin; experiment: In vivo TRAP formation at infusion/injection sites in swine skin (H&E histology); conditions: infused continuously over a 5- to 7-day period
# Source text: The presence of the purple web appearance is indicated by the black arrows.
# White area in the center of the image is the previous location of the injection port.
compound,measurement,setting,value
"CCCCCCCCCCCCCC(=O)O[C@@H]1[C@@H](C)[C@@]2(O)[C@@H](C=C(CO)C[C@]3(O)C(=O)C(C)=C[C@@H]23)[C@@H]2C(C)(C)[C@]12OC(C)=O [PMA, phorbol myristate acetate]",TRAPs at 30 minutes,"[1]; FIG. 60B, human PMNs, RPMI 1640",presence of TRAPs
same,TRAPs at 60 minutes,"[1]; FIG. 60C, Humalog insulin 1/5 dilution",significant TRAPs
same,TRAP formation in PMNs of 3 donors,"[1]; dilution not specified, positive controls and insulin fibrils lacking PP",trigger TRAP formation; also recorded: triggered TRAPs
same,time after exposure until TRAPs are triggered,"[1]; human PMNs, commercial insulin and m-cresol at 1/5 dilution",≤ 60 min
Oc1ccccc1 [phenol],TRAP formation in human neutrophils,[1],trigger TRAP formation
same,TRAP formation at higher dilution than 1/5,[1],weak to no TRAP formation
same,TRAP formation at 1/5 dilution,[1],triggered TRAP formation
same,TRAP formation at 1/5 dilution,[1]; listed as Phenol,strong traps
"CNc1ccc2oc(C[C@H]3O[C@@]4(CC[C@H]3C)O[C@H]([C@H](C)C(=O)c3ccc[nH]3)[C@H](C)C[C@H]4C)nc2c1C(=O)O [A23187, calcimycin]","TRAPs in neutrophils, positive control","[1]; FIG. 77 d-f, human neutrophils in culture dish",triggers TRAPs
Cc1cccc(O)c1 [m-cresol],TRAP formation in human neutrophils,[1],trigger TRAP formation
same,TRAPs from 120 minutes to 150 minutes,"[1]; FIGS. 60E-60F, 1/5 dilution (0.6 mg/ml m-cresol)",significant increase in the presence of TRAPs
same,number and size of TRAPs from 180 minutes to 240 minutes,"[1]; FIGS. 60G-60I, 1/5 dilution",remained relatively stable
same,TRAP formation at higher dilution than 1/5,[1],weak to no TRAP formation
same,TRAP formation at 1/5 dilution,[1],strong
same,TRAPS in swine tissue,[2],presence of TRAPS
